Test system: 485368-065-R3-J5-PDC spheroids with HUVEC/MSC, viability
Assay: Anticancer human tumor 485368-065-R3-J5-PDC patient-derived pancreatic carcinoma cell line growth inhibition [RAS]
Details: for IC50: curve of first compound; for viability, T/C: stronger effect = lower value
How it was run: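 Agents were tested in combination matrices in half-log decrements from a top concentration at or near clinical Cmax (10 microM if undetermined). Targets were multi-cell spheroids of tumour lines plus HUVEC and MSC stromal cells.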
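Also: spheroids exposed to agents for seven days before readout.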

For `CC(=O)OC12COC1CC(O)C1(C)C(=O)C(O)C3=C(C)C(OC(=O)C(O)C(NC(=O)OC(C)(C)C)c4ccccc4)CC(O)(C(OC(=O)c4ccccc4)C21)C3(C)C` (centres undefined) + CCn1c(-c2cc(N3CCN(C)CC3)cnc2C(C)OC)c2c3cc(ccc31)-c1csc(n1)CC(NC(=O)C1CC1C)C(=O)N1CCCC(N1)C(=O)OCC(C)(C)C2, the IC50 (second compound 0.000949 µM) was under 31.6 nM, the IC50 (second compound 0.003 µM) was under 31.6 nM and the IC50 (second compound 0.00949 µM) was under 31.6 nM. It also gave an IC50 (second compound 0.03 µM) of under 31.6 nM, an IC50 (second compound 0.0949 µM) of under 31.6 nM and an IC50 (second compound 0.3 µM) of under 31.6 nM. It also gave a viability, T/C (second compound 0.000949 µM, first compound 0.0316 µM) of 11.7%, a viability, T/C (second compound 0.000949 µM, first compound 0.1 µM) of 10.4% and a viability, T/C (second compound 0.000949 µM, first compound 0.316 µM) of 12.1%. The viability, T/C (second compound 0.000949 µM, first compound 1 µM) was 14.3%, the viability, T/C (second compound 0.000949 µM, first compound 3.16 µM) was 15.2% and the viability, T/C (second compound 0.000949 µM, first compound 10 µM) was 19.9%. The viability, T/C (second compound 0.003 µM, first compound 0.0316 µM) was 10.7%, the viability, T/C (second compound 0.003 µM, first compound 0.1 µM) was 13.2% and the viability, T/C (second compound 0.003 µM, first compound 0.316 µM) was 12.2%. For the same compound, the viability, T/C (second compound 0.003 µM, first compound 1 µM) was 14.1%, the viability, T/C (second compound 0.003 µM, first compound 3.16 µM) was 15.3% and the viability, T/C (second compound 0.003 µM, first compound 10 µM) was 13.6%. For the same compound, the viability, T/C (second compound 0.00949 µM, first compound 0.0316 µM) was 9.77%, the viability, T/C (second compound 0.00949 µM, first compound 0.1 µM) was 12.6% and the viability, T/C (second compound 0.00949 µM, first compound 0.316 µM) was 10%. It also gave a viability, T/C (second compound 0.00949 µM, first compound 1 µM) of 8.97%, a viability, T/C (second compound 0.00949 µM, first compound 3.16 µM) of 11.4% and a viability, T/C (second compound 0.00949 µM, first compound 10 µM) of 10.5%. It also gave a viability, T/C (second compound 0.03 µM, first compound 0.0316 µM) of 7.89%, a viability, T/C (second compound 0.03 µM, first compound 0.1 µM) of 8.87% and a viability, T/C (second compound 0.03 µM, first compound 0.316 µM) of 8.33%. For the same compound, the viability, T/C (second compound 0.03 µM, first compound 1 µM) was 9.73%, the viability, T/C (second compound 0.03 µM, first compound 3.16 µM) was 10.6% and the viability, T/C (second compound 0.03 µM, first compound 10 µM) was 10.7%. The viability, T/C (second compound 0.0949 µM, first compound 0.0316 µM) was 7.57%, the viability, T/C (second compound 0.0949 µM, first compound 0.1 µM) was 8.27% and the viability, T/C (second compound 0.0949 µM, first compound 0.316 µM) was 7.87%. The viability, T/C (second compound 0.0949 µM, first compound 1 µM) was 7.97%, the viability, T/C (second compound 0.0949 µM, first compound 3.16 µM) was 10.9% and the viability, T/C (second compound 0.0949 µM, first compound 10 µM) was 8.11%. It also gave a viability, T/C (second compound 0.3 µM, first compound 0.0316 µM) of 7.3%, a viability, T/C (second compound 0.3 µM, first compound 0.1 µM) of 7.09% and a viability, T/C (second compound 0.3 µM, first compound 0.316 µM) of 7.44%. The viability, T/C (second compound 0.3 µM, first compound 1 µM) was 8.55%, the viability, T/C (second compound 0.3 µM, first compound 3.16 µM) was 10.2% and the viability, T/C (second compound 0.3 µM, first compound 10 µM) was 6.81%.

`CCc1c2c(nc3ccc(O)cc13)-c1cc3c(c(=O)n1C2)COC(=O)[C@]3(O)CC` + CCn1c(-c2cc(N3CCN(C)CC3)cnc2C(C)OC)c2c3cc(ccc31)-c1csc(n1)CC(NC(=O)C1CC1C)C(=O)N1CCCC(N1)C(=O)OCC(C)(C)C2 was tested, and the IC50 (second compound 0.000949 µM) was under 0.949 nM, the IC50 (second compound 0.003 µM) was under 0.949 nM and the IC50 (second compound 0.00949 µM) was under 0.949 nM. It also gave an IC50 (second compound 0.03 µM) of under 0.949 nM, an IC50 (second compound 0.0949 µM) of under 0.949 nM and an IC50 (second compound 0.3 µM) of under 0.949 nM. The viability, T/C (second compound 0.000949 µM, first compound 0.000949 µM) was 29.2%, the viability, T/C (second compound 0.000949 µM, first compound 0.003 µM) was 19.3% and the viability, T/C (second compound 0.000949 µM, first compound 0.00949 µM) was 12.3%. The viability, T/C (second compound 0.000949 µM, first compound 0.03 µM) was 6.49%, the viability, T/C (second compound 0.000949 µM, first compound 0.0949 µM) was 3.81% and the viability, T/C (second compound 0.000949 µM, first compound 0.3 µM) was 3.85%. It also gave a viability, T/C (second compound 0.003 µM, first compound 0.000949 µM) of 17.6%, a viability, T/C (second compound 0.003 µM, first compound 0.003 µM) of 13.6% and a viability, T/C (second compound 0.003 µM, first compound 0.00949 µM) of 9.1%. The viability, T/C (second compound 0.003 µM, first compound 0.03 µM) was 7.85%, the viability, T/C (second compound 0.003 µM, first compound 0.0949 µM) was 5.44% and the viability, T/C (second compound 0.003 µM, first compound 0.3 µM) was 3.67%. For the same compound, the viability, T/C (second compound 0.00949 µM, first compound 0.000949 µM) was 15.4%, the viability, T/C (second compound 0.00949 µM, first compound 0.003 µM) was 11.8% and the viability, T/C (second compound 0.00949 µM, first compound 0.00949 µM) was 8.19%. The viability, T/C (second compound 0.00949 µM, first compound 0.03 µM) was 7.82%, the viability, T/C (second compound 0.00949 µM, first compound 0.0949 µM) was 5.53% and the viability, T/C (second compound 0.00949 µM, first compound 0.3 µM) was 6.59%. It also gave a viability, T/C (second compound 0.03 µM, first compound 0.000949 µM) of 9.82%, a viability, T/C (second compound 0.03 µM, first compound 0.003 µM) of 8.14% and a viability, T/C (second compound 0.03 µM, first compound 0.00949 µM) of 6.87%. For the same compound, the viability, T/C (second compound 0.03 µM, first compound 0.03 µM) was 8.66%, the viability, T/C (second compound 0.03 µM, first compound 0.0949 µM) was 5.8% and the viability, T/C (second compound 0.03 µM, first compound 0.3 µM) was 7.18%. For the same compound, the viability, T/C (second compound 0.0949 µM, first compound 0.000949 µM) was 8.87%, the viability, T/C (second compound 0.0949 µM, first compound 0.003 µM) was 8.54% and the viability, T/C (second compound 0.0949 µM, first compound 0.00949 µM) was 6.42%. For the same compound, the viability, T/C (second compound 0.0949 µM, first compound 0.03 µM) was 6.3%, the viability, T/C (second compound 0.0949 µM, first compound 0.0949 µM) was 6.27% and the viability, T/C (second compound 0.0949 µM, first compound 0.3 µM) was 5.48%. For the same compound, the viability, T/C (second compound 0.3 µM, first compound 0.000949 µM) was 7.33%, the viability, T/C (second compound 0.3 µM, first compound 0.003 µM) was 9.17% and the viability, T/C (second compound 0.3 µM, first compound 0.00949 µM) was 6.28%. It also gave a viability, T/C (second compound 0.3 µM, first compound 0.03 µM) of 5.07%, a viability, T/C (second compound 0.3 µM, first compound 0.0949 µM) of 5.93% and a viability, T/C (second compound 0.3 µM, first compound 0.3 µM) of 5.26%.

— PubChem BioAssay AID2060902 (Molecular Pharmacology Branch, DTP, NCI, 2025)
